Like-named read-outs stand apart in the source and are kept apart here.
Tests used:
insulin receptors (IR) = conditions: cited from earlier work
IGF-1 receptor (IGF-1R) = conditions: cited from earlier work; for affinity for IGF-1 receptor versus human insulin: as stated in the abstract
[1] = tested on: malignant cell lines expressing primarily IGF-1R; conditions: cited from earlier work
[2] = tested on: subjects with type 1 and type 2 diabetes; conditions: after multiple dosing; cited from earlier work
[3] = tested on: insulin/IGF-1 hybrid receptors; conditions: in vitro; ref Pierre-Eugene et al., PLoS One 2012;7:e41992; cited from earlier work
[4] = in vitro, 37°C, mass spectrometry; cited from earlier work
animals = conditions: in vivo in animals; cited from earlier work
[5] = acidic pH; precipitates amorphously upon s.c. injection; cited from earlier work
MCF-7 cells = conditions: ref Pierre-Eugene et al., PLoS One 2012;7:e41992; cited from earlier work
[6] = for detectability / plasma concentration after s.c. glargine: any dose (0.3-1.2 units/kg), any time point 3-30 h, LLOQ 33 pmol/L
[7] = in vitro; cited from earlier work

10^B-Asp-human insulin [X10, reference compound]
affinity for IR (insulin receptors (IR)): greater affinity
affinity for IGF-1R (IGF-1 receptor (IGF-1R)): greater affinity

21^A-Gly-31^B-Arg-32^B-Arg-human insulin [glargine, reference compound]
potency on DNA synthesis (mitogenic effects) compared with human insulin ([1]; in vitro, malignant cell lines expressing primarily IGF-1R): greater potency
duration of action [2]: > 24 h
potency for stimulation of insulin/IGF-1 hybrid receptors versus human insulin [3]: higher potency
affinity for IGF-1 receptor versus human insulin (IGF-1 receptor (IGF-1R); in vitro): slightly higher affinity
binding affinity for IGF-1R compared with human insulin (IGF-1 receptor (IGF-1R); in vitro): greater binding affinity
time for quantitative degradation into M1 in human serum [4]: ≤ 1 h
tumor growth promotion (animals): does not promote tumor growth
solubility [5]: Soluble at acidic pH
proliferative/antiapoptotic effects versus human insulin (MCF-7 cells): greater proliferative/antiapoptotic effects
detectability / plasma concentration after s.c. glargine [6]: nearly always fall below LLOQ
detectability / plasma concentration after s.c. glargine ([6]; listed as Glargine): detectable in only one-third of subjects

21^A-Gly-des-30^B-Thr-human insulin [M2]
mitogenic potential in vitro compared with glargine, and even with human insulin [1]: lower mitogenic potential
potency for stimulation of insulin/IGF-1 hybrid receptors versus human insulin [3]: lower potency
metabolic properties relative to human insulin [7]: fully retaining its metabolic properties
affinity for IGF-1 receptor versus human insulin (IGF-1 receptor (IGF-1R); in vitro): lower affinity
affinity for IGF-1R compared with glargine, and even with human insulin (IGF-1 receptor (IGF-1R); in vitro): lower affinity
time of first appearance in plasma ([6]; after s.c. glargine, associated with high M1 concentration): first appeared after 12 h

21^A-Gly-human insulin [M1]
mitogenic potential in vitro compared with glargine, and even with human insulin [1]: lower mitogenic potential
potency for stimulation of insulin/IGF-1 hybrid receptors versus human insulin [3]: lower potency
metabolic properties relative to human insulin [7]: fully retaining its metabolic properties
affinity for IGF-1 receptor versus human insulin (IGF-1 receptor (IGF-1R); in vitro): lower affinity
affinity for IGF-1R compared with glargine, and even with human insulin (IGF-1 receptor (IGF-1R); in vitro): lower affinity
time of maximum plasma concentrations after subcutaneous injection of glargine ([6]; M1 PK profile, doses 0.3, 0.6, 1.2 units/kg): ~12 h
plasma concentration by 30 h versus baseline ([6]; doses >0.3 units/kg): still elevated over baseline

31^B-Arg-32^B-Arg-human insulin [reference compound]
IGF-1R affinity compared with glargine (IGF-1 receptor (IGF-1R); in vitro): even greater IGF-1R affinity

— publication PMC3507590 (Diabetes Care, 2012)
